Measured values published in US20120101253A1, “STRUCTURED POLYCYCLIC PEPTIDE” (priority 2009, published 2012).
Like-named read-outs stand apart in the source and are kept apart here. Residues, ends and D or L forms follow the SMILES beside them.

Experiments:
MDM2 (res 2-125) = MDM2 (res 2-125) (Homo sapiens, UniProt Q00987); assay: Fluorescence anisotropy titration, binding to MDM2
Description: Titration experiments were run on a Horiba Jobin Yvon fluorimeter equipped with the Hamilton Microlab titrator controlled by laboratory software. […] The slit widths for excitation and emission were 5 nm and 15 nm and the integration time 10 s was used for each measurement. The intrinsic fluorescence of tryptophan in peptides 10, 48 was used to measure their binding affinity for MDM2 (res 2-125). The experiments were performed at 23C° in PBS, 5 mM DTT. Usually 250 μl of MDM2 (150 μM) was titrated into 1.2 ml of peptide (1 uM). Titration data were analyzed with a standard 1:1 binding model by using the quadratic solution to the equilibrium Kd=[A][B]/[AB]. […] The fitting equation contained an extra term to account for linear drift.

MDM2 peptide (res 2-125) = target: T1, MDM2 peptide (res 2-125) (Homo sapiens, UniProt Q00987); assay: Competition ELISA of PEP48 phage binding to MDM2; conditions: TBMB conjugate
T1 construct: biotinylated MDM2 peptide (res 2-125) was immobilized on a streptavidin-coated plate
T1 sequence (Q00987 2-125): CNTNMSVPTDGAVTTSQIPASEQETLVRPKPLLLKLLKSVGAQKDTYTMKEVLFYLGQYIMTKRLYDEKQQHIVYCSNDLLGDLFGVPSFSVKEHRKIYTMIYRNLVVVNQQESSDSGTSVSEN
From the text: Phage was detected using an anti-M13-HRP monoclonal antibody (1:5000, Amersham).

human plasma kallikrein [1] = target: T2, human plasma kallikrein (Homo sapiens, UniProt P03952); assay: Inhibition of human plasma kallikrein, fluorogenic substrate Z-Phe-Arg-AMC; format: biochemical; conditions: for inhibition of human plasma kallikrein, fold weaker than parental inhibitor PK15: tricyclic peptides
T2 construct: purchased Innovative Research, Southfiled, USA
T2 sequence (P03952 391-638 limits assumed): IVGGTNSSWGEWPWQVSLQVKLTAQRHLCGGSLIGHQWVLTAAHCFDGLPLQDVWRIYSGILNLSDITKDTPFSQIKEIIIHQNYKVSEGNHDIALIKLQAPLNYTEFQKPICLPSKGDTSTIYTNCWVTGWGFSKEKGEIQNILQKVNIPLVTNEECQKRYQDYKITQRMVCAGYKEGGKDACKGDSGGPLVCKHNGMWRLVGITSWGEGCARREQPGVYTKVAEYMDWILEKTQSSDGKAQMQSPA
T2 sequence (P03952 20-390 partner limits assumed): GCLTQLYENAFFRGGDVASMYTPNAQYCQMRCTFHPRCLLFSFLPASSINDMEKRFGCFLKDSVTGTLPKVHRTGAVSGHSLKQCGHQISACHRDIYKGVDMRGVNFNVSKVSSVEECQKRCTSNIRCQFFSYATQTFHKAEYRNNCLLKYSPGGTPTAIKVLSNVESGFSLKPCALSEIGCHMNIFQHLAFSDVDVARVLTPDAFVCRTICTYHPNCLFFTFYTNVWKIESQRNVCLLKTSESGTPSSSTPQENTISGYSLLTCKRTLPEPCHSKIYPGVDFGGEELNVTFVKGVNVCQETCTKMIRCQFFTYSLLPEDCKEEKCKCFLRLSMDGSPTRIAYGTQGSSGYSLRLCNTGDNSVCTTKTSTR
Description: Fluorescence intensities were recorded for 1 hour with excitation and emission wavelengths of 355 nm and 460 nm on a fluorescence plate reader (Molecular Devices, Sunnyvale, USA).

human plasma kallikrein [2] = target: T2, human plasma kallikrein; conditions: Heinis et al., 2009; cited from earlier work
[3] = target: T3, leucyl aminopeptidase from Aeromonas proteolytica (Vibrio proteolyticus, UniProt Q01693); assay: Aminopeptidase treatment of peptides (MALDI-TOF); format: in vitro ADME
T3 construct: purchased Sigma A8200
T3 sequence (Q01693 107-405 limits assumed): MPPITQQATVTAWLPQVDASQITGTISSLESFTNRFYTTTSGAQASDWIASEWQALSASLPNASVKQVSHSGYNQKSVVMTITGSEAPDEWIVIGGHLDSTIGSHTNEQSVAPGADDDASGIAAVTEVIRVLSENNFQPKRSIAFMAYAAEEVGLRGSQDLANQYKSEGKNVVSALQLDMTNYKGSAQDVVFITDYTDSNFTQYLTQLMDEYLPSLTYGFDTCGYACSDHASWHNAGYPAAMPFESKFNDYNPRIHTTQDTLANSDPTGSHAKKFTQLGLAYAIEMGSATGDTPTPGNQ
Description: Peptide 7 before (300 μM) and after (75 μM) MTGase treatment in reaction buffer was incubated with different amounts of leucyl aminopeptidase from Aeromonas proteolytica (EC 3.4.11.10; Sigma, A8200) (3 to 352 ng, corresponding to concentrations of about 50 nM to 6 μM) in a final volume of 2 μl for 30 min at RT. The mass of the peptides was determined by MALDI-TOF mass spectrometry.

[4] = IC50 After MTGase cyclisation (tricyclic), tricyclic peptides after MTGase treatment
[5] = IC50 Before MTGase cyclisation (bicyclic), bicyclic TBMB conjugates

MDM2 (res 2-125), sequence (Q00987 2-125): as the sequence (Q00987 2-125) above

affinity of synthetic peptide for MDM2 (MDM2 (res 2-125))	Molecule	IC50 (human plasma kallikrein [1]; [4]) [nM]	IC50 (human plasma kallikrein [1]; [5]) [nM]	inhibition of human plasma kallikrein, fold weaker than parental inhibitor PK15 (human plasma kallikrein [1])	also measured
micromolar or better	H-SCVRFGWTCDNSWHGCKG-OH (cysteine pairing not given here) [PEP48, bicyclic peptide selected against MDM2]				Kd (MDM2 (res 2-125); entire bicyclic peptide, read-out: binding affinity (Kd) for MDM2): 500 to 800 nM; Kd (MDM2 (res 2-125); measured λex=280 nm, read-out: Kd, peptide + MDM2): 760 nM; Kd (MDM2 (res 2-125); measured λex=295 nm, read-out: Kd, peptide + MDM2): 567 nM; binding site on MDM2 by competition ELISA (MDM2 peptide (res 2-125)): bind to the same site as a linear peptide previously shown to block the p53-MDM2 interaction
	CC(C)C[C@@H]1NC(=O)[C@H](C)NC(=O)[C@H](CCC(=O)O)NC(=O)[C@H](CC(=O)O)NC(=O)[C@H](C)NC(=O)[C@@H]2CCCN2C(=O)[C@@H]2CSCc3cc(cc(c3)CSC[C@@H](C(=O)N[C@@H](C)C(=O)N[C@@H](CCCCN)C(=O)N[C@@H](CO)C(N)=O)NC1=O)CSC[C@H](NC(=O)[C@H](C)NC(=O)[C@H](CCC(N)=O)NC(=O)[C@H](CC(C)C)NC(=O)[C@H](C)NC(=O)[C@@H](N)Cc1c[nH]c3ccccc13)C(=O)N[C@@H](CO)C(=O)N[C@@H](CC(=O)O)C(=O)N[C@@H](CCCNC(=N)N)C(=O)N[C@@H](Cc1ccccc1)C(=O)N[C@@H](CCCNC(=N)N)C(=O)N[C@@H](CC(N)=O)C(=O)N2 [peptide 8] (HELM PEPTIDE1{W.A.L.Q.A.C.S.D.R.F.R.N.C.P.A.D.E.A.L.C.A.K.S.[am]}|CHEM1{[c1c(C[*:1])cc(C[*:3])cc1C[*:2]]}$PEPTIDE1,CHEM1,6:R3-1:R1|PEPTIDE1,CHEM1,13:R3-1:R2|PEPTIDE1,CHEM1,20:R3-1:R3$$$V2.0)	196	185	about 70 fold	
micromolar or better	CC(C)C[C@@H]1NC(=O)[C@H](CCC(=O)O)NC(=O)[C@@H](NC(=O)[C@@H](N)CO)CSCc2cc3cc(c2)CSC[C@H](NC(=O)[C@H](CCCCN)NC(=O)[C@@H]2CCCN2C(=O)[C@H](CC(N)=O)NC(=O)[C@H](Cc2c[nH]c4ccccc24)NC1=O)C(=O)N[C@@H](CCCNC(=N)N)C(=O)N[C@@H](CC(C)C)C(=O)N[C@@H](CO)C(=O)N1CCC[C@H]1C(=O)N[C@@H](Cc1ccccc1)C(=O)N[C@@H](CCC(=O)O)C(=O)N[C@H](C(=O)N[C@@H](CCCCN)C(=O)NCC(=O)O)CSC3 [PEP10] (HELM PEPTIDE1{S.C.E.L.W.N.P.K.C.R.L.S.P.F.E.C.K.G}|CHEM1{[c1c(C[*:1])cc(C[*:3])cc1C[*:2]]}$PEPTIDE1,CHEM1,2:R3-1:R1|PEPTIDE1,CHEM1,9:R3-1:R2|PEPTIDE1,CHEM1,16:R3-1:R3$$$V2.0; bridges inferred)				
	[H][C@@]12CCCN1C(=O)[C@]1([H])CSCc3cc(cc(c3)CSC[C@@H](C(=O)NCC(N)=O)NC(=O)[C@H](CC(C)C)NC(=O)[C@H](C)NC(=O)[C@H](CCC(=O)O)NC(=O)[C@H](CC(=O)O)NC(=O)[C@H](C)NC2=O)CSC[C@H](NC(=O)[C@H](C)N)C(=O)N[C@@H](CO)C(=O)N[C@@H](CC(=O)O)C(=O)N[C@@H](CCCNC(=N)N)C(=O)N[C@@H](Cc2ccccc2)C(=O)N[C@@H](CCCNC(=N)N)C(=O)N[C@@H](CC(N)=O)C(=O)N1 [PK15, reference compound] (HELM PEPTIDE1{A.C.S.D.R.F.R.N.C.P.A.D.E.A.L.C.G.[am]}|CHEM1{[c1c(C[*:1])cc(C[*:3])cc1C[*:2]]}$PEPTIDE1,CHEM1,2:R3-1:R1|PEPTIDE1,CHEM1,9:R3-1:R2|PEPTIDE1,CHEM1,16:R3-1:R3$$$V2.0)		3		factor of activity reduction on C-terminal conjugation to a protein (human plasma kallikrein [2]): around 10
	CC(C)C[C@H](NC(=O)[C@H](C)N)C(=O)N[C@@H](CCC(N)=O)C(=O)N[C@@H](C)C(=O)N[C@H]1CSCc2cc3cc(c2)CSC[C@H](NC(=O)[C@H](CC(N)=O)NC(=O)[C@H](CCCNC(=N)N)NC(=O)[C@H](Cc2ccccc2)NC(=O)[C@H](CCCNC(=N)N)NC(=O)[C@H](CC(=O)O)NC(=O)[C@H](CO)NC1=O)C(=O)N1CCC[C@H]1C(=O)N[C@@H](C)C(=O)N[C@@H](CC(=O)O)C(=O)N[C@@H](CCC(=O)O)C(=O)N[C@@H](C)C(=O)N[C@@H](CC(C)C)C(=O)N[C@H](C(=O)N[C@@H](C)C(=O)N[C@@H](CCCCN)C(=O)N[C@@H](CO)C(N)=O)CSC3 [peptide 7] (HELM PEPTIDE1{A.L.Q.A.C.S.D.R.F.R.N.C.P.A.D.E.A.L.C.A.K.S.[am]}|CHEM1{[c1c(C[*:1])cc(C[*:3])cc1C[*:2]]}$PEPTIDE1,CHEM1,5:R3-1:R1|PEPTIDE1,CHEM1,12:R3-1:R2|PEPTIDE1,CHEM1,19:R3-1:R3$$$V2.0)	200	259	about 70 fold	amount of exopeptidase at which exocyclic amino acids (Ala-Leu-Gln-Ala) were degraded ([3]; bicyclic peptide, 30 min at RT): ≥ 70 ng; exopeptidase needed to degrade the Gln-Ala dipeptide ([3]; tricyclic peptide, compared with bicyclic): higher exopeptidease concentrations were required
